Test system: human PBMC
Assay: LPS stimulated cytokine secretion in human PBMC pretreated with compounds (Phase 2)
Assay type: cell-based
Set-up: TNF-α concentration in supernatant / IL-1β concentration in supernatant / IL-6 concentration in supernatant / IL-2 concentration in supernatant / IFN-g concentration in supernatant: unit of the concentration uncertain
Settings: for IL-2 concentration in supernatant / TNF-α concentration in supernatant / IL-1β concentration in supernatant / IFN-g concentration in supernatant / IL-6 concentration in supernatant: 8-hour 1 ng/mL LPS stimulation; for IL-2 concentration in supernatant: LLOQ = 1.698 pg/mL; for TNF-α concentration in supernatant: LLOQ = 2.018 pg/mL; for IL-1β concentration in supernatant: LLOQ = 2.299 pg/mL; for IFN-g concentration in supernatant: LLOQ = 2.792 pg/mL; for IL-6 concentration in supernatant: LLOQ = 0.831; for Effect on LPS stimulated cytokine secretion: any conditions tested
Text: Results are represented as fold-change relative to LPS treatment alone for each cytokine calculated by means from 3 separate donors.
RPMI medium alone, RPMI supplemented with 0.2% DMSO (to mimic treatment conditions) or LPS stimulation alone were used as controls.
Except for the two negative control conditions, all 3 donors responded to all experimental conditions tested with the secretion of TNF-α, IL-1β, and IL-6 albeit with a high degree of variability.

O=c1c(O)c(-c2cc(O)c(O)c(O)c2)oc2cc(O)cc(O)c12 [Myricetin]
IL-2 concentration in supernatant (Donor 1, 10 (unit uncertain)): <LLOQ | TNF-α concentration in supernatant (Donor 1, 10 (unit uncertain)): 1496.9 pg/mL | IL-1β concentration in supernatant (Donor 1, 10 (unit uncertain)): 3079.47 pg/mL | IFN-g concentration in supernatant (Donor 1, 10 (unit uncertain)): <LLOQ | IL-6 concentration in supernatant (Donor 1, 10 (unit uncertain)): 884.11 pg/mL | IL-2 concentration in supernatant (Donor 1, 100 (unit uncertain)): <LLOQ | TNF-α concentration in supernatant (Donor 1, 100 (unit uncertain)): 1251.59 pg/mL | IL-1β concentration in supernatant (Donor 1, 100 (unit uncertain)): 2858.12 pg/mL | IFN-g concentration in supernatant (Donor 1, 100 (unit uncertain)): <LLOQ | IL-6 concentration in supernatant (Donor 1, 100 (unit uncertain)): 767.01 pg/mL | IL-2 concentration in supernatant (Donor 1, 200 (unit uncertain)): <LLOQ | TNF-α concentration in supernatant (Donor 1, 200 (unit uncertain)): 1811.82 pg/mL | IL-1β concentration in supernatant (Donor 1, 200 (unit uncertain)): 2923.92 pg/mL | IFN-g concentration in supernatant (Donor 1, 200 (unit uncertain)): <LLOQ | IL-6 concentration in supernatant (Donor 1, 200 (unit uncertain)): 781.22 pg/mL | IL-2 concentration in supernatant (Donor 2, 10 (unit uncertain)): <LLOQ | TNF-α concentration in supernatant (Donor 2, 10 (unit uncertain)): 1006.28 pg/mL | IL-1β concentration in supernatant (Donor 2, 10 (unit uncertain)): 2517.48 pg/mL | IFN-g concentration in supernatant (Donor 2, 10 (unit uncertain)): <LLOQ | IL-6 concentration in supernatant (Donor 2, 10 (unit uncertain)): 685.49 pg/mL | IL-2 concentration in supernatant (Donor 2, 100 (unit uncertain)): <LLOQ | TNF-α concentration in supernatant (Donor 2, 100 (unit uncertain)): 1597.26 pg/mL | IL-1β concentration in supernatant (Donor 2, 100 (unit uncertain)): 3046.49 pg/mL | IFN-g concentration in supernatant (Donor 2, 100 (unit uncertain)): <LLOQ | IL-6 concentration in supernatant (Donor 2, 100 (unit uncertain)): 833.84 pg/mL | IL-2 concentration in supernatant (Donor 2, 200 (unit uncertain)): <LLOQ | TNF-α concentration in supernatant (Donor 2, 200 (unit uncertain)): 1021.2 pg/mL | IL-1β concentration in supernatant (Donor 2, 200 (unit uncertain)): 2501.45 pg/mL | IFN-g concentration in supernatant (Donor 2, 200 (unit uncertain)): <LLOQ | IL-6 concentration in supernatant (Donor 2, 200 (unit uncertain)): 649.98 pg/mL | IL-2 concentration in supernatant (Donor 3, 10 (unit uncertain)): <LLOQ | TNF-α concentration in supernatant (Donor 3, 10 (unit uncertain)): 4121.89 pg/mL | IL-1β concentration in supernatant (Donor 3, 10 (unit uncertain)): 3880.95 pg/mL | IFN-g concentration in supernatant (Donor 3, 10 (unit uncertain)): <LLOQ | IL-6 concentration in supernatant (Donor 3, 10 (unit uncertain)): 685.49 pg/mL | IL-2 concentration in supernatant (Donor 3, 100 (unit uncertain)): <LLOQ | TNF-α concentration in supernatant (Donor 3, 100 (unit uncertain)): 3225.93 pg/mL | IL-1β concentration in supernatant (Donor 3, 100 (unit uncertain)): 3293.89 pg/mL | IFN-g concentration in supernatant (Donor 3, 100 (unit uncertain)): <LLOQ | IL-6 concentration in supernatant (Donor 3, 100 (unit uncertain)): 833.84 pg/mL | IL-2 concentration in supernatant (Donor 3, 200 (unit uncertain)): <LLOQ | TNF-α concentration in supernatant (Donor 3, 200 (unit uncertain)): 2528.98 pg/mL | IL-1β concentration in supernatant (Donor 3, 200 (unit uncertain)): 2756.81 pg/mL | IFN-g concentration in supernatant (Donor 3, 200 (unit uncertain)): <LLOQ | IL-6 concentration in supernatant (Donor 3, 200 (unit uncertain)): 649.98 pg/mL | Effect on LPS stimulated cytokine secretion: did not appear to have any effect | Effect on LPS stimulated cytokine secretion (listed as myricetin): no effect

— US12569509B2, “Method and composition for preventing and treating viral infections” (priority 2017, dated 2026)
